Measurements published in a melting point compilation (Tetko et al.).

Compared with COC(=O)c1c(Cl)ccc([N+](=O)[O-])c1N, Cc1cccc([N+](=O)[O-])c1C(N)=O is higher in melting point: 89 to 91 °C for the first, 158 to 160 °C for the second.

First: NC(=O)NCC(=O)O
Second: CCC(=O)NC(C)C(=O)O (stereo not given)
The melting point of the first is higher: 174 to 176 °C for the first, 89 to 91 °C for the second.

First: CN(C)S(=O)(=O)c1ccc(NC(=O)CCl)cc1
Second: CN(c1ccccc1)S(=O)(=O)c1ccc(Cl)c(C(=O)O)c1
The melting point of the first is lower: 115 to 117 °C for the first, 151 to 153 °C for the second.

First: Cc1cc(C(=O)CCl)c(C)n1-c1ccc(Cl)c(C(F)(F)F)c1
Second: NS(=O)(=O)c1cc(C(F)(F)F)ccc1Cl
The melting point of the first is lower: 139 to 141 °C for the first, 154 to 156 °C for the second.

First: Nc1nncc(-c2ccc(Cl)s2)n1
Second: Cc1cc(N)n(-c2nc3ccccc3[nH]2)n1
The melting point of the first is higher: 259 to 261 °C for the first, 203 to 205 °C for the second.

Compared with Clc1cnc2nc(Cl)oc2c1, ClCc1coc(-c2cccc(Cl)c2)n1 is higher in melting point: 68 to 70 °C for the first, 76 to 78 °C for the second.

First: Nc1cccc(CS(=O)C2CCCCC2)c1 (stereo not given)
Second: Nc1ccc2[nH]c(CC3CCCCC3)nc2c1
The melting point of the first is lower: 88 to 90 °C for the first, 267 to 269 °C for the second.

Compared with CC1Cc2cc(S(N)(=O)=O)cc(Cl)c2O1 (stereo not given), NS(=O)(=O)c1cccc(F)c1 is lower in melting point: 174 to 176 °C for the first, 129 to 131 °C for the second.

First: CCc1c(C(=O)CCl)[nH]c(C)c1C(C)=O
Second: Cc1ccc(C)c2[nH]c(C(=O)O)cc12
The melting point of the first is lower: 143 to 145 °C for the first, 206 to 208 °C for the second.

Compared with Cc1c(C(=O)O)sc2ccc(F)cc12, CCNc1nc(C)c(C(=O)O)s1 is lower in melting point: 289 to 291 °C for the first, 171 to 173 °C for the second.

First: O=c1[nH]c2ccc([N+](=O)[O-])cc2o1
Second: O=c1[nH]c2cc([N+](=O)[O-])ccc2o1
The melting point of the first is higher: 242 to 244 °C for the first, 229 to 231 °C for the second.

First: S=C(Nc1ccccc1)N1CCCCC1
Second: O=S(=O)(Cc1ccccc1)N1CCNCC1
The melting point of the first is lower: 99 to 101 °C for the first, 129 to 131 °C for the second.

Compared with CC(C)c1cccc(C(C)C)c1NCCO, CC(C)c1ccc(C(N)CC(=O)O)cc1 (stereo not given) is higher in melting point: 72 to 74 °C for the first, 234 to 236 °C for the second.

First: O=[N+]([O-])c1cc(S(=O)(=O)Nc2nc3ccccc3nc2Cl)ccc1Cl
Second: Cc1ccccc1NS(=O)(=O)c1ccc(C(=O)O)cc1
The melting point of the first is lower: 180 to 182 °C for the first, 256 to 258 °C for the second.

First: O=C(O)c1nn(-c2ccccc2)cc1O
Second: O=C(O)c1cccc(-n2ccc(C(F)(F)F)n2)c1
The melting point of the first is lower: 154 to 156 °C for the first, 159 to 161 °C for the second.

Compared with N#CCNC(=O)CN1CCC(=O)CC1, NC(=O)CN1CC(C(=O)O)CC1=O (stereo not given) is higher in melting point: 124 to 126 °C for the first, 169 to 171 °C for the second.

First: Sc1nnc(-c2ccccc2Br)o1
Second: COc1cc(CN)c2ccccc2n1
The melting point of the first is higher: 200 to 202 °C for the first, 79 to 81 °C for the second.

First: Cc1ccc(C#N)c(N)n1
Second: CC(C)(C)n1cc(C#N)cc1N
The melting point of the first is higher: 169 to 171 °C for the first, 105 to 107 °C for the second.

Compared with O=c1[nH]c(CCl)nc2c(Br)cc(Br)cc12, COc1ccc2c(CCl)cc(=O)oc2c1 is lower in melting point: 248 to 252 °C for the first, 189 to 191 °C for the second.

First: CN(CC(=O)N1CCCC(C(=O)O)C1)c1ccc(Cl)cn1 (stereo not given)
Second: O=C(O)c1cccc(S(=O)(=O)N2CCCC2)c1
The melting point of the first is higher: 184 to 186 °C for the first, 157 to 159 °C for the second.

Compared with CC1(CCc2ccccc2)NC(=O)N(N)C1=O (stereo not given), CC(CC(=O)O)NC(=O)OCc1ccccc1 (stereo not given) is higher in melting point: < 17 °C for the first, 129 to 131 °C for the second.

Compared with Nc1cccc(NC(=O)CO)c1, Cc1nc2ccccn2c1C(=O)NN is higher in melting point: 150 to 152 °C for the first, 188 to 190 °C for the second.

First: COc1cc(-n2cccc2)c(Cl)cc1C(=O)O
Second: COc1cc(C=O)ccc1OCC(=O)c1ccccc1
The melting point of the first is higher: 152 to 154 °C for the first, 127 to 129 °C for the second.

Compared with Cc1ccc(-n2nc(-c3ccccc3)cc2N)c(C)c1, Cc1ccccc1CNc1ccccc1N is lower in melting point: 126 to 128 °C for the first, 71 to 73 °C for the second.

First: O=C(O)C1(C(F)(F)F)CCN(Cc2ccccc2)C1 (stereo not given)
Second: CC1CCN(C(=O)CCl)c2ccccc2S1 (stereo not given)
The melting point of the first is higher: 210 to 212 °C for the first, 125 to 127 °C for the second.

First: O=[N+]([O-])c1ccc(Cl)cc1I
Second: Cc1cc(Cl)c(Cl)cc1[N+](=O)[O-]
The melting point of the first is higher: 62 to 64 °C for the first, 57 to 59 °C for the second.

First: Cc1ccc(CN2CCOCC2)cc1N
Second: Cc1ccc(OCCCC(=O)O)cc1C
The melting point of the first is higher: 125 to 127 °C for the first, 90 to 92 °C for the second.

First: Cn1c(S)nc2sccc2c1=O
Second: CC1(c2cccs2)NC(=O)NC1=O (stereo not given)
The melting point of the first is higher: 317 to 319 °C for the first, 137 to 139 °C for the second.

First: OC(c1ccccc1)c1nc2cc(Cl)ccc2[nH]1 (stereo not given)
Second: O=C(O)C=Cc1ccccc1OCc1cccc(Br)c1
The melting point of the first is higher: 184 to 186 °C for the first, 148 to 150 °C for the second.

Compared with Cc1nn(C)c2c1NCCS2(=O)=O, CC1Cc2cc(C(=O)O)ccc2N1S(C)(=O)=O (stereo not given) is higher in melting point: 110 to 112 °C for the first, 194 to 196 °C for the second.

Compared with O=C1NC(=O)C(c2ccccc2OC(F)(F)F)N1 (stereo not given), O=C(O)CCC1Cc2ccccc2NC1=O (stereo not given) is higher in melting point: 156 to 158 °C for the first, 174 to 176 °C for the second.

Compared with CCc1cccc2c(C=O)c[nH]c12, CS(=O)(=O)Cc1ccc(F)cc1CN is lower in melting point: 99 to 101 °C for the first, 77 to 79 °C for the second.

First: O=[N+]([O-])c1ccc(CO)c(Br)c1
Second: COc1ccc(C(C)=O)cc1CC#N
The melting point of the first is lower: 81 to 83 °C for the first, 111 to 113 °C for the second.

CCOc1cc(CC#N)cc(Cl)c1OC(F)F and O=S(=O)(Cl)/C=C/c1ccccc1 cannot be ordered by melting point: 79 to 81 °C for the first, 80 to 88 °C for the second.

First: CC(=O)C12CC3CC(C1)CC(C(=O)O)(C3)C2
Second: CC(C)(C(=O)O)C1CCCCC1
The melting point of the first is higher: 123 to 125 °C for the first, 64 to 66 °C for the second.
